# From BindingDB's records for patent US10532048 (Seldar Pharma Inc., 2020)
# Biological target: Gastrin-releasing peptide receptor (Homo sapiens, UniProt P30550)
# Assay: BB2 Receptor Antagonistic Activity
# Protocol: A BB2 receptor binding test was carried out using a membrane sample prepared from a human prostate cancer-derived PC-3 cell. The PC-3 cell was cultured using an RPMI-1640 medium containing 5% fetal bovine serum, and then a membrane sample was prepared by the following methods. The cells detached by a trypsin treatment were added with a 50 mM Tris-HCl buffer (pH 7.4, containing 0.2 mg/ml trypsin inhibitor and 0.2 mg/ml benzamidine), and homogenized by Polytron. The cell suspension was centrifuged at 1,500 rpm for 10 minutes, and the supernatant thus obtained was subjected to 1 hour of ultracentrifugation at 37,000×g. The precipitate was suspended in the aforementioned buffer to a concentration of 0.4 mg protein/ml, and stored at −80° C.The BB2 receptor binding test was carried out by the following method, and the receptor antagonistic activity of a compound to be tested was calculated. […] Non-specific binding was measured using 1 μM of bombesin. […] The radioactivity on the filter was measured using a microplate scintillation counter (Top Count, Perkin-Elmer Co., Ltd.).
# Sequence of Gastrin-releasing peptide receptor (P30550 whole entry): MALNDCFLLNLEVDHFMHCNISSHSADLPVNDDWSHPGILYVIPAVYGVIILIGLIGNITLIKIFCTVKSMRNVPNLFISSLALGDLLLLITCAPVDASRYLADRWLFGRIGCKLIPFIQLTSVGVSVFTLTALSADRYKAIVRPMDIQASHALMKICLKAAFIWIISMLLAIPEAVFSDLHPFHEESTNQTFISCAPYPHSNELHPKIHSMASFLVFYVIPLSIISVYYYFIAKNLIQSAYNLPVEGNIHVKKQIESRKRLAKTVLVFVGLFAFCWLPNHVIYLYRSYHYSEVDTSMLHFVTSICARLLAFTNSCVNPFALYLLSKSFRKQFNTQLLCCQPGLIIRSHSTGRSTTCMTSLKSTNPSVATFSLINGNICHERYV
compound,measurement,value
"O=C(NCCc1ccccc1)[C@@H]1c2ccccc2C(=O)N([C@H](CO)c2ccccc2)[C@H]1c1ccc(Cl)cc1Cl [US10532048, Example 62]",IC50,0.0183 µM
